# Assay: Effective concentration to induce a quorum signal in Vibrio harveyi(by binding Lux P protein)
# Assay type: functional
row,EC50,SMILES
1,429 µM,CC(=O)C(=O)[C@H](O)[C@H](O)CO
2,737 µM,O=C1O[C@H]([C@@H](O)CO)C(O)=C1O [ASCORBIC ACID]
3,108 µM,O=C(CO)[C@H](O)[C@H](O)CO

# More lines, now with the values behind:
row,SMILES,EC50
1,O=C(CO)[C@@H](O)[C@H](O)CO,560 µM
2,CC(=O)C(=O)CCO,27 µM
3,CC(=O)C(=O)[C@@H](O)CO,0.044 µM
4,CC(=O)C(=O)[C@H](O)CO,84 µM

# Source: ChEMBL document CHEMBL1141927, “Quorum sensing in Vibrio harveyi: probing the specificity of the LuxP binding site” (Bioorg Med Chem Lett, 2005)
